Measurements: ChEMBL document CHEMBL1201862, “PubChem BioAssay data set” (2004)
The source made the active and inactive calls.

Experiments:
Cannabinoid receptor 2 [1] = target: T1, Cannabinoid receptor 2 (Homo sapiens, UniProt P34972); experiment: SAR analysis of antagonists of the Cannabinoid Receptor 2 using an Image-Based Assay. [Related pubchem assays (depositor defined):AID2013, AID2026]; assay type: functional
Cannabinoid receptor 2 [2] = target: T1, Cannabinoid receptor 2; experiment: SAR analysis of agonists of the Cannabinoid Receptor 2 using an Image-Based Assay. [Related pubchem assays (depositor defined):AID2013, AID2026]; assay type: functional
[3] = target: T2, G-protein coupled receptor 35 (Homo sapiens, UniProt Q9HC97); experiment: SAR analysis of Agonists of the GPR35 Receptor using an Image-Based Assay - Set 2. [Related pubchem assays (depositor defined):AID2013, AID2026]; assay type: functional
T2 sequence (Q9HC97 whole entry): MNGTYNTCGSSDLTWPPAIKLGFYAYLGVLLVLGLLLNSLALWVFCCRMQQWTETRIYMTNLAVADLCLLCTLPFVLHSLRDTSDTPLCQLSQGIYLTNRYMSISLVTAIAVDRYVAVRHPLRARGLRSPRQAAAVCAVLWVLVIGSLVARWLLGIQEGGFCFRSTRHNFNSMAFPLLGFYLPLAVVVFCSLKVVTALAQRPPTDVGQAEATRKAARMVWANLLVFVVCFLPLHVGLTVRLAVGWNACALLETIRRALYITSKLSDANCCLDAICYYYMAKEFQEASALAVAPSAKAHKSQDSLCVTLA

Cannabinoid receptor 1 [4] = target: T3, Cannabinoid receptor 1 (Homo sapiens, UniProt P21554); experiment: SAR analysis of antagonists of the Cannabinoid Receptor 1 using an Image-Based Assay - Set 2. [Related pubchem assays (depositor defined):AID2013, AID2026]; assay type: functional
T3 sequence (P21554 whole entry): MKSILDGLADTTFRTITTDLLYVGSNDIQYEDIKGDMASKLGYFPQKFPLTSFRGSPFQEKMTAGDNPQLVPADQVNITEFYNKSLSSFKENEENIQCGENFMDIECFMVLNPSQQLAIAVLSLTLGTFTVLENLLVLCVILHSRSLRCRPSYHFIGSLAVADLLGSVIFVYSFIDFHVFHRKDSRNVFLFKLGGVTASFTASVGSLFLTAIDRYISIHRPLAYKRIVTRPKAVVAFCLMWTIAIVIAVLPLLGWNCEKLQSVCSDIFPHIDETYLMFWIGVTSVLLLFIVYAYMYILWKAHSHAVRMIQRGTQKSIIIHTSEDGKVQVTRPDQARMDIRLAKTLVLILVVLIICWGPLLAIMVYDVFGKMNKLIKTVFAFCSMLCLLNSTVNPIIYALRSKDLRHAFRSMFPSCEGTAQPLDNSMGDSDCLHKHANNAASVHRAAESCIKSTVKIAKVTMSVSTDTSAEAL

Cannabinoid receptor 2 [5] = target: T1, Cannabinoid receptor 2; experiment: SAR analysis of antagonists of the Cannabinoid Receptor 2 using an Image-Based Assay - Set 3. [Related pubchem assays (depositor defined):AID2013, AID2026]; assay type: functional
[6] = target: T2, G-protein coupled receptor 35; experiment: SAR analysis of Antagonists of the GPR35 Receptor using an Image-Based Assay - Set 3. [Related pubchem assays (depositor defined):AID2013, AID2026]; assay type: functional
[7] = target: T4, Dual specificity protein phosphatase 3 (Homo sapiens, UniProt P51452); experiment: VHR phosphatase inhibition, dose response, selectivity assay for STEP inhibitor project, biochemical (AID 602374); assay type: functional; details: read-out: IC50_Mean
T4 sequence (P51452 whole entry): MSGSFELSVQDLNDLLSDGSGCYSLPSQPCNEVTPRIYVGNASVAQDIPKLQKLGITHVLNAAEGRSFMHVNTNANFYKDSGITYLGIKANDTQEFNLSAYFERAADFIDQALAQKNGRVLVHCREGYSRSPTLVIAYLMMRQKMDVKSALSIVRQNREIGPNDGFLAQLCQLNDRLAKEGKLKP

[8] = target: Tyrosine-protein phosphatase non-receptor type 5 (Homo sapiens, UniProt P54829); experiment: STEP phosphatase inhibitors, confirmation, biochemical, fluorescence intensity, uHTS hits (AID 602372); assay type: functional; details: read-out: IC50_Mean
Sequence of Tyrosine-protein phosphatase non-receptor type 5 (P54829 whole entry): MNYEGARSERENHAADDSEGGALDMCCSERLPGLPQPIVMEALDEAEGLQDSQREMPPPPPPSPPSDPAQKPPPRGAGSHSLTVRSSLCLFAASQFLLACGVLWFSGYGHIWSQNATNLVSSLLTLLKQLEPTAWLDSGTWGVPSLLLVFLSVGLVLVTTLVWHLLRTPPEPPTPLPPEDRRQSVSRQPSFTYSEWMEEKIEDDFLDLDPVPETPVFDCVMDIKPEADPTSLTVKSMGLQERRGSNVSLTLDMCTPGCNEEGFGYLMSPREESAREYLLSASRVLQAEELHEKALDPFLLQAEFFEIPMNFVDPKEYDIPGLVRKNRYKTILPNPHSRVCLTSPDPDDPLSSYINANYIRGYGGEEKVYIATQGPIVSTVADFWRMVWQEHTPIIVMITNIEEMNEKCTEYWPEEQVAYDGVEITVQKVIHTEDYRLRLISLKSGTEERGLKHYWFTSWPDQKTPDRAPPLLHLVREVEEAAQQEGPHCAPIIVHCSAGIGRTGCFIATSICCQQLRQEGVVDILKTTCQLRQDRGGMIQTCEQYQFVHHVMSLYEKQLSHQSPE

Cannabinoid receptor 1 [9] = target: T3, Cannabinoid receptor 1; experiment: SAR analysis of antagonists of the Cannabinoid Receptor 1 using an Image-Based Assay - Set 4. [Related pubchem assays (depositor defined):AID2013, AID2026]; assay type: functional
Cannabinoid receptor 1 [10] = target: T3, Cannabinoid receptor 1; experiment: SAR analysis of agonists of the Cannabinoid Receptor 1 using an Image-Based Assay - Set 2. [Related pubchem assays (depositor defined):AID2013, AID2026]; assay type: functional
Cannabinoid receptor 2 [11] = target: T1, Cannabinoid receptor 2; experiment: SAR analysis of agonists of the Cannabinoid Receptor 2 using an Image-Based Assay - Set 3. [Related pubchem assays (depositor defined):AID2013, AID2026]; assay type: functional
[12] = target: Tyrosine-protein phosphatase non-receptor type 11 (Homo sapiens, UniProt Q06124); experiment: SHP2 phosphatase inhibition, dose response, selectivity assay for STEP inhibitor project, biochemical (AID 602367); assay type: functional; details: read-out: IC50_Mean
Sequence of Tyrosine-protein phosphatase non-receptor type 11 (Q06124 whole entry): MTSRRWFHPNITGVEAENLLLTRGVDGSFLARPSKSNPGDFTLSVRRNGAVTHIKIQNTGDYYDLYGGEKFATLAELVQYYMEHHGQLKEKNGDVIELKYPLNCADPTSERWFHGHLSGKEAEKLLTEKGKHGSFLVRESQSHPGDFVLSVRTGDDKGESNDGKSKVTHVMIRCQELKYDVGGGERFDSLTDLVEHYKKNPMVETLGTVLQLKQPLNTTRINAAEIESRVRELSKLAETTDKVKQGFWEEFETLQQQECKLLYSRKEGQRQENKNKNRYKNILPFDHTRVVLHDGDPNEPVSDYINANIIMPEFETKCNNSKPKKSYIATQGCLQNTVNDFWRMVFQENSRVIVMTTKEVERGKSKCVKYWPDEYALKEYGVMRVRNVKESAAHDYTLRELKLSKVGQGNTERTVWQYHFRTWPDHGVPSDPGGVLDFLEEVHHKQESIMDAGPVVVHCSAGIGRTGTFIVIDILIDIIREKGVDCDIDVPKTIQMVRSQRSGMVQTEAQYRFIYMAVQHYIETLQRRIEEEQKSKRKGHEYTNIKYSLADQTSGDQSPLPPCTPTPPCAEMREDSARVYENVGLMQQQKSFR

[13] = target: Induced myeloid leukemia cell differentiation protein Mcl-1 (Homo sapiens, UniProt Q07820); assay type: functional
Sequence of Induced myeloid leukemia cell differentiation protein Mcl-1 (Q07820 whole entry): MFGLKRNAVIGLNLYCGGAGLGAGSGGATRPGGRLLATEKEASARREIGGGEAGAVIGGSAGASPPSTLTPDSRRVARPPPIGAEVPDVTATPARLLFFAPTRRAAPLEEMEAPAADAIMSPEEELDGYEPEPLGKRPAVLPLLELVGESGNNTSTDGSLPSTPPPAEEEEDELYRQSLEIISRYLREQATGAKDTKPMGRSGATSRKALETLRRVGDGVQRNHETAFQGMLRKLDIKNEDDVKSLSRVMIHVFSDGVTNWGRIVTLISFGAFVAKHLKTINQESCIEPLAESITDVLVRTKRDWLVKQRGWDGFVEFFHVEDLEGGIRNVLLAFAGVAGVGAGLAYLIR

[14] = target: T5, G-protein coupled receptor 55 (Homo sapiens, UniProt Q9Y2T6); experiment: SAR Analysis of Selective Antagonists of GPR55 using an Image-Based Assay - Set 4. [Related pubchem assays (depositor defined):AID2013, AID2026]; assay type: functional
T5 sequence (Q9Y2T6 whole entry): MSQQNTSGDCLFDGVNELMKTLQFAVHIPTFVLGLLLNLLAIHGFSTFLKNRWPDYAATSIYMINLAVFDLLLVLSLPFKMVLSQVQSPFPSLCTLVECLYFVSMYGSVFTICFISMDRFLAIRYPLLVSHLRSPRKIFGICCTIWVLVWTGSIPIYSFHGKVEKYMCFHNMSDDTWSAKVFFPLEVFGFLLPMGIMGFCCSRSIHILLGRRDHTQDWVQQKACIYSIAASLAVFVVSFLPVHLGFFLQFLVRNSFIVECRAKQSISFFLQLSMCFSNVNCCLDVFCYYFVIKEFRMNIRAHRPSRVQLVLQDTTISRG

Caspase-6 = target: T6, Caspase-6 (Homo sapiens, UniProt P55212); experiment: human caspase-6 inhibitors, dose response, biochemical, VEID-R110 fluorescence, cherry-pick (AID 720632)
T6 sequence (P55212 whole entry): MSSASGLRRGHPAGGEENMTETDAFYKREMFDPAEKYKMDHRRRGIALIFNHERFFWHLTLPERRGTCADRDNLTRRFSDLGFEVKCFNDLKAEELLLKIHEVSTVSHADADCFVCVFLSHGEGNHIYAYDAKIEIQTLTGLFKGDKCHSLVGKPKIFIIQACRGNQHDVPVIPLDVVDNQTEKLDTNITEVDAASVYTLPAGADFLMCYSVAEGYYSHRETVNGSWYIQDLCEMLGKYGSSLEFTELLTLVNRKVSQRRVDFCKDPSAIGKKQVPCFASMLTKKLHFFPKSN

[15] = target: T5, G-protein coupled receptor 55; experiment: GPR55 antagonist potency of analogs, SAR follow-up, imaging, U2OS, beta-arrestin-GFP, LPI agonist, set 2 (AID 2820); assay type: functional
[16] = target: T5, G-protein coupled receptor 55; experiment: GPR55 antagonists blocking LPI-driven arrestin recruitment, primary screen, imaging, U2OS, beta-arrestin-GFP, LPI agonist (AID 2013); assay type: functional;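 note: antagonist potency measured as reduced agonist-driven arrestin aggregation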
[17] = target: Peroxisome proliferator-activated receptor gamma/Nuclear receptor coactivator 3 (Homo sapiens, UniProt P37231); experiment: TR-FRET dose response biochemical High Throughput Screening assay for agonists of the steroid receptor coactivator 3 (SRC-3) recruitment by the peroxisome proliferator-activated receptor gamma (PPAR gamma): non-selective agonists. [Related pubchem assays: 1301 (Confirmation screen.), 1048 (Primary screen.)]; assay type: functional
[18] = target: Peroxisome proliferator-activated receptor gamma/Nuclear receptor coactivator 1 (Homo sapiens, UniProt P37231); experiment: TR-FRET dose response biochemical High Throughput Screening assay for agonists of the steroid receptor coactivator 1 (SRC-1) recruitment by the peroxisome proliferator-activated receptor gamma (PPAR gamma): non-selective agonists. [Related pubchem assays (depositor defined):AID1300, AID1808, AID504735, AID631]; assay type: protein assay
[19] = target: Peroxisome proliferator-activated receptor gamma/Nuclear receptor coactivator 2 (Homo sapiens, UniProt P37231); experiment: TR-FRET dose response biochemical High Throughput Screening assay for agonists of the steroid receptor coactivator 2 (SRC-2) recruitment by the peroxisome proliferator-activated receptor gamma (PPAR gamma): non-selective agonists. [Related pubchem assays: 1297, 1032 ]; assay type: functional
Coagulation factor XII = target: T7, Coagulation factor XII (Homo sapiens, UniProt P00748); experiment: Factor XIIa Dose Response Confirmation from Single Well HTS. [Related pubchem assays (depositor defined):AID701]; assay type: functional
T7 sequence (P00748 whole entry): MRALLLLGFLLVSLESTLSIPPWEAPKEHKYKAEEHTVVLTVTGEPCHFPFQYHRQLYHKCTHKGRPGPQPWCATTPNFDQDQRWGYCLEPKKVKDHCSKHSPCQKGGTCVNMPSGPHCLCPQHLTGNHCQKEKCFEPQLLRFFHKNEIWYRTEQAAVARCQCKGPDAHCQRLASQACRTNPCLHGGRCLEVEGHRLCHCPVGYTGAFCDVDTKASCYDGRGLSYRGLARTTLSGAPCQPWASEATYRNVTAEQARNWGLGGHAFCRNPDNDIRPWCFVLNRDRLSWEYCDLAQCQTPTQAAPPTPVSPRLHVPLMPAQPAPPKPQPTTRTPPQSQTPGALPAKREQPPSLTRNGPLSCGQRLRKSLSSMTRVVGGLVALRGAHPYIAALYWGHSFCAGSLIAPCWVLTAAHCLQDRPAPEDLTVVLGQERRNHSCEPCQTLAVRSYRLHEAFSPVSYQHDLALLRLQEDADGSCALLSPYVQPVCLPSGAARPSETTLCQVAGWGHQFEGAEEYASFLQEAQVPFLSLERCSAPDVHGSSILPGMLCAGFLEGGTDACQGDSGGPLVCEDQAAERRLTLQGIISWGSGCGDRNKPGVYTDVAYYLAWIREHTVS

[20] = target: Tyrosine-protein phosphatase non-receptor type 12 (Homo sapiens, UniProt Q05209); experiment: SAR Selectivity Analysis of small molecule inhibitors of PEST using pCAP in a fluorescence assay. [Related pubchem assays (depositor defined):AID1779, AID1784, AID2135]; assay type: functional
Sequence of Tyrosine-protein phosphatase non-receptor type 12 (Q05209 whole entry): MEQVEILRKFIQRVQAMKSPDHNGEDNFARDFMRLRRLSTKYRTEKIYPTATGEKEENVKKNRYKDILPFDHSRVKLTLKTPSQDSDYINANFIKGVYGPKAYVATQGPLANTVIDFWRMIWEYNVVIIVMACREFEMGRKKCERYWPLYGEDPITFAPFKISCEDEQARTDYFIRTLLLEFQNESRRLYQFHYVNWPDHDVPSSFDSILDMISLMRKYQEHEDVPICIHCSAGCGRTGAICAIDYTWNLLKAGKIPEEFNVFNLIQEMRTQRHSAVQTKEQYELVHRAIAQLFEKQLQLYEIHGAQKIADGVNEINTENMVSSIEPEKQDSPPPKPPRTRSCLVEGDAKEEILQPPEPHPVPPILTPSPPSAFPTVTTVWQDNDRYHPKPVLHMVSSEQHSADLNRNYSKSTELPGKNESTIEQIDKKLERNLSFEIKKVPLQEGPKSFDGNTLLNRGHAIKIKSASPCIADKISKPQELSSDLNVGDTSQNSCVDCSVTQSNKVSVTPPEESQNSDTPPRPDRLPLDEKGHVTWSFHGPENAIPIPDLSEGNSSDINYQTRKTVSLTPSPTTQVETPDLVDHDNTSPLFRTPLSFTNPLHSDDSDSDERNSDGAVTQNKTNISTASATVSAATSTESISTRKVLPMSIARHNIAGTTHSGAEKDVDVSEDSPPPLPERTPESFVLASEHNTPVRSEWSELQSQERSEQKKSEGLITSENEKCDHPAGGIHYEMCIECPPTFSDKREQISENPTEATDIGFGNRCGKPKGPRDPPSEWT

[21] = target: T8, Tyrosine-protein phosphatase non-receptor type 22 (Homo sapiens, UniProt Q9Y2R2); experiment: PTPN22 phosphatase inhibition, dose response, selectivity assay for STEP inhibitor project, biochemical (AID 624241); assay type: functional
T8 sequence (Q9Y2R2 whole entry): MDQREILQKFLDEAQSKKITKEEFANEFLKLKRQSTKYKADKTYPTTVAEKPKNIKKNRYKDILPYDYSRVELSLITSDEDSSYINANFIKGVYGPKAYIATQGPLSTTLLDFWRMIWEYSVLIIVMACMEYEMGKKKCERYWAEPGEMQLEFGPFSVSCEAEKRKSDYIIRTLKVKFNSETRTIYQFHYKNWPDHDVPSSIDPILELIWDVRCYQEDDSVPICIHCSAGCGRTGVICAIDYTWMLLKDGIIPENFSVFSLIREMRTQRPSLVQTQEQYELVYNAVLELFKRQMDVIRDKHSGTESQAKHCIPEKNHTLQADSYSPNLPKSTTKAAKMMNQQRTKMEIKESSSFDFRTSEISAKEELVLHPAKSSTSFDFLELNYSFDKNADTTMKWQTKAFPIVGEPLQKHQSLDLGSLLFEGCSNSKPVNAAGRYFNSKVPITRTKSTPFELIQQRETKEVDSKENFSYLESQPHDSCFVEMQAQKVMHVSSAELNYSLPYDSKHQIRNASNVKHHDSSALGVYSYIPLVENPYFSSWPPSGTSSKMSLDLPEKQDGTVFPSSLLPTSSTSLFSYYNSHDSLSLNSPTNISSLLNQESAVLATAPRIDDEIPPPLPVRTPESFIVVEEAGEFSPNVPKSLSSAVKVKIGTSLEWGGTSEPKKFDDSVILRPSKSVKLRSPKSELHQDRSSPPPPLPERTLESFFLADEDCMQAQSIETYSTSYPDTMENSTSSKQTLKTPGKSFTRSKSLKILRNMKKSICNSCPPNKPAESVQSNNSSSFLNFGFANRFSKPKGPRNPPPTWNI

[22] = target: T8, Tyrosine-protein phosphatase non-receptor type 22; experiment: SAR LYP1 Fluorescent Assay using OMFP substrate for In Vitro dose response studies - Set 3. [Related pubchem assays (depositor defined):AID1779, AID1784, AID2140, AID2686]; assay type: functional
[23] = target: T4, Dual specificity protein phosphatase 3; experiment: SAR VHR1 Fluorescent Assay for In Vitro dose response studies Set 2. [Related pubchem assays (depositor defined):AID1654, AID1661, AID1878]; assay type: functional
[24] = target: T9, Dual specificity protein phosphatase 6 (Rattus norvegicus, UniProt Q64346); assay type: functional;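 note: confirmatory in vitro dose-response testing of MKP-3 inhibition; recombinant His-tagged MKP-3 made in E. coli BL21 with OMFP substrate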
T9 sequence (Q64346 whole entry): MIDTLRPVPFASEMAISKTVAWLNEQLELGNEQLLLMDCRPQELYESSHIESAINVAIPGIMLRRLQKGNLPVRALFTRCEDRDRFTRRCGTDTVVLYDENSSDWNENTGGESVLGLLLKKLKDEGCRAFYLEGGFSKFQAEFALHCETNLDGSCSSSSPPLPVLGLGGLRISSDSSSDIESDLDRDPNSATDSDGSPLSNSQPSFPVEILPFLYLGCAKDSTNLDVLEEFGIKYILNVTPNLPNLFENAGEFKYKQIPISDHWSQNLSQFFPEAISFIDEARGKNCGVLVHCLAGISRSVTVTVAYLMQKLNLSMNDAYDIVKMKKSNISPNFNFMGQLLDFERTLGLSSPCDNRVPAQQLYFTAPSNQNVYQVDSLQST

[25] = target: T10, Tyrosine-protein phosphatase non-receptor type 7 (Homo sapiens, UniProt P35236); experiment: HePTP (PTPN7) phosphatase inhibitor potency, SAR follow-up, biochemical, set 2 (AID 449736); assay type: functional
T10 sequence (P35236 whole entry): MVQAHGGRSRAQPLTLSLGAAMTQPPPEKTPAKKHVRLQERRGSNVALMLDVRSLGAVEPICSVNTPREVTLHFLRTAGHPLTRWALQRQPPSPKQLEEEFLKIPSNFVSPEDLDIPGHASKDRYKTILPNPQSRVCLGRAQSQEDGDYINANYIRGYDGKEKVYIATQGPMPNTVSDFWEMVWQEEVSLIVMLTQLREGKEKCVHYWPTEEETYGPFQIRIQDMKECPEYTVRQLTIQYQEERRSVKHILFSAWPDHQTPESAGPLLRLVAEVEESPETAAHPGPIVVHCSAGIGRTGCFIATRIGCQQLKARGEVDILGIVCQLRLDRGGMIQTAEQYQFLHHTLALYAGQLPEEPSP

[26] = target: T8, Tyrosine-protein phosphatase non-receptor type 22; experiment: LYP (PTPN22) phosphatase inhibitor potency, SAR follow-up, biochemical, pCAP fluorogenic substrate, fluorescence, set 3 (AID 449727); assay type: functional
[27] = target: T10, Tyrosine-protein phosphatase non-receptor type 7; experiment: redox-dependent HePTP inhibition, mechanism study, biochemical, fluorescence (AID 2068); assay type: functional

T1 sequence (P34972 whole entry): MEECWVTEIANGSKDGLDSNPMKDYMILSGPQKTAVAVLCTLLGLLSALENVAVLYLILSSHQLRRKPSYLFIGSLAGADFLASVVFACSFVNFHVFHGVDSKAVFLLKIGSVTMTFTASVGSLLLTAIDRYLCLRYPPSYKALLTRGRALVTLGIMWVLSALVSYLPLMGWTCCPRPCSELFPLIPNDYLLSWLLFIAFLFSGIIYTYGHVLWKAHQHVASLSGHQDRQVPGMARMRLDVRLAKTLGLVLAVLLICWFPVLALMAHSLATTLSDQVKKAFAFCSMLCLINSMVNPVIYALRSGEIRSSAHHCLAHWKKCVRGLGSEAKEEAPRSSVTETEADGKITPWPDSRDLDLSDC

Cc1cc(C)c2nc(-c3ccccn3)cc(C(=O)Nc3ccc(S(=O)(=O)Nc4onc(C)c4C)cc3)c2c1
IC50 (Cannabinoid receptor 2 [1]): > 32 µM (inactive) | EC50 (Cannabinoid receptor 2 [2]): > 32 µM (inactive) | EC50 [3]: > 32 µM (inactive) | IC50 (Cannabinoid receptor 1 [4]): > 32 µM (inactive) | IC50 (Cannabinoid receptor 2 [5]): > 32 µM (inactive) | IC50 [6]: > 32 µM (inactive) | IC50 [7]: 2.73 µM (active) | IC50 [8]: 28.3 µM (inactive) | IC50 (Cannabinoid receptor 1 [9]): 24.6 µM (inactive) | EC50 (Cannabinoid receptor 1 [10]): > 32 µM (inactive) | EC50 (Cannabinoid receptor 2 [11]): > 32 µM (inactive) | IC50 [12]: 2.95 µM (active) | IC50 [13]: 4.01 µM (active) | IC50 [14]: 0.263 µM (active) | AC50 (Caspase-6): 14.7 µM (active) | IC50 [15]: 0.136 µM (active) | IC50 [16]: < 0.5 µM (active)

O=C(CCSc1nnc2ccc3ccccc3n12)Nc1ccc(F)cc1
EC50 [17]: > 79.4 µM (not active) | EC50 [18]: 24.3 µM (inactive) | EC50 [19]: 20.9 µM (not active) | IC50 (Coagulation factor XII): > 50 µM (inactive)

CCc1ccc(NC2=NC(=O)/C(=C/c3ccc(OCC(=O)O)cc3)S2)cc1
IC50 [20]: 12.6 µM (active) | IC50 [21]: > 100 µM (inactive) | IC50 [22]: 31.7 µM (active) | IC50 [23]: 18.9 µM (active) | IC50 [7]: 10.4 µM (active) | IC50 [8]: 24.3 µM (inactive) | IC50 [24]: > 100 µM (inactive) | IC50 [12]: 9.52 µM (active) | IC50 [25]: 3.25 µM (active) | IC50 [26]: 12.9 µM (active) | IC50 [27]: 4.53 µM (active)
